The results in this text go back to paper PMC4854315, “Discovery of a novel allosteric inhibitor-binding site in ERK5: comparison with the canonical kinase hinge ATP-binding site” (Acta Crystallographica. Section D, Structural Biology, 2016).

Some results are limits rather than exact numbers.

Holding throughout (test): Z'-LYTE kinase panel
Common to all, as to assay type: biochemical

One experiment addresses T1, ABL2 (Arg) (Homo sapiens, UniProt P42684).
T1 construct: purchased ThermoFisher (SelectScreen, Z'-LYTE)
The procedure, abridged:
(§1)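 Readout is percentage inhibition, obtained from the standard Z′-LYTE protocol with test compound present at 10 µM; screened within a panel of 225 kinases.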

The target in experiment [1] is T2, MAPK14 (p38 alpha) Direct (Homo sapiens, UniProt Q16539).
T2 construct: purchased ThermoFisher (SelectScreen, Z'-LYTE)
An outline of the steps: as §1

For another experiment, the target named is T3, MAP2K1 (MEK1) (Homo sapiens, UniProt Q02750).
T3 construct: purchased ThermoFisher (SelectScreen, Z'-LYTE)
The following applies: 10 µM compound; ATP 100. An outline of the steps:
as §1

Another experiment deals with T4, MELK (Homo sapiens, UniProt Q14680).
T4 construct: purchased ThermoFisher (SelectScreen, Z'-LYTE)
T4 sequence (Q14680 whole entry): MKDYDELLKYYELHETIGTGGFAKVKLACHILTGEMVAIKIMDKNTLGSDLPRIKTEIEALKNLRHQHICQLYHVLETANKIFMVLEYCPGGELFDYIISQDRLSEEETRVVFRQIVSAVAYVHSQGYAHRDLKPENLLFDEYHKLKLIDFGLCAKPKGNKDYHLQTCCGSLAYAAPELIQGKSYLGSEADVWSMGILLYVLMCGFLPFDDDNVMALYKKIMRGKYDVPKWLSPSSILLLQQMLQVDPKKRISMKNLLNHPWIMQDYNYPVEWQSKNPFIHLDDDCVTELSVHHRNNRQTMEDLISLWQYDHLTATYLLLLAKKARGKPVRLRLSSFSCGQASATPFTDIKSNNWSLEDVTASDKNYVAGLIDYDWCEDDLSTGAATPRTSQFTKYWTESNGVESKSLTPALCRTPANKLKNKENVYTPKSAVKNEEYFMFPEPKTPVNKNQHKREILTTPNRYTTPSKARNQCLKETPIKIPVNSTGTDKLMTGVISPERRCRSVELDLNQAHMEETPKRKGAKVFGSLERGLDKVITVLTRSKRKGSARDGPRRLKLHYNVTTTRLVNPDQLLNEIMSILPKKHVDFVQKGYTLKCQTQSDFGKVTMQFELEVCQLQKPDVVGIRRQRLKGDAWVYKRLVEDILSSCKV
The procedure, abridged:
as §1

A further experiment deals with T5, NTRK3 (TRKC) (Homo sapiens, UniProt Q16288).
T5 construct: purchased ThermoFisher (SelectScreen, Z'-LYTE)
The procedure, abridged:
as §1

In another experiment the target is T6, MAP3K9 (MLK1) (Homo sapiens, UniProt P80192).
T6 construct: purchased ThermoFisher (SelectScreen, Z'-LYTE)
The procedure, abridged:
as §1

The target of the next experiment is T7, GRK4 (Homo sapiens, UniProt P32298).
T7 construct: purchased ThermoFisher (SelectScreen, Z'-LYTE)
An outline of the steps:
as §1

The target in the next experiment is T8, CSF1R (FMS) (Homo sapiens, UniProt P07333).
T8 construct: purchased ThermoFisher (SelectScreen, Z'-LYTE)
Particulars: 10 µM compound, ATP Km app. An outline of the steps: as §1

The next experiment addresses T9, CAMK2B (CaMKII beta) (Homo sapiens, UniProt Q13554).
T9 construct: purchased ThermoFisher (SelectScreen, Z'-LYTE)
An outline of the steps: as §1

The target in the next experiment is T10, MAPK12 (p38 gamma) (Homo sapiens, UniProt P53778).
T10 construct: purchased ThermoFisher (SelectScreen, Z'-LYTE)
T10 sequence (P53778 1-367): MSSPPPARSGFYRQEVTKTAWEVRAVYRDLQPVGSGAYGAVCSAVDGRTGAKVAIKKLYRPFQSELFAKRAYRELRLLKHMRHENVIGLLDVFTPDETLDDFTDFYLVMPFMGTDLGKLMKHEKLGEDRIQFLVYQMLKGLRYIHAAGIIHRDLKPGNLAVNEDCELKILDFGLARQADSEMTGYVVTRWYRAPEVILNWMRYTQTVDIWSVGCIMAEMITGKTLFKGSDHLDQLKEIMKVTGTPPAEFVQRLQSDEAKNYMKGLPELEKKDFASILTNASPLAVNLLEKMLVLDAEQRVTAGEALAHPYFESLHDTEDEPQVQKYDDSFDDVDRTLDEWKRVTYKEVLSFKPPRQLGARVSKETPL
An outline of the steps: as §1

The target of another experiment is T11, PDK1 (Homo sapiens, UniProt O15530).
T11 construct: purchased ThermoFisher (SelectScreen, Z'-LYTE)
T11 sequence (O15530 1-556): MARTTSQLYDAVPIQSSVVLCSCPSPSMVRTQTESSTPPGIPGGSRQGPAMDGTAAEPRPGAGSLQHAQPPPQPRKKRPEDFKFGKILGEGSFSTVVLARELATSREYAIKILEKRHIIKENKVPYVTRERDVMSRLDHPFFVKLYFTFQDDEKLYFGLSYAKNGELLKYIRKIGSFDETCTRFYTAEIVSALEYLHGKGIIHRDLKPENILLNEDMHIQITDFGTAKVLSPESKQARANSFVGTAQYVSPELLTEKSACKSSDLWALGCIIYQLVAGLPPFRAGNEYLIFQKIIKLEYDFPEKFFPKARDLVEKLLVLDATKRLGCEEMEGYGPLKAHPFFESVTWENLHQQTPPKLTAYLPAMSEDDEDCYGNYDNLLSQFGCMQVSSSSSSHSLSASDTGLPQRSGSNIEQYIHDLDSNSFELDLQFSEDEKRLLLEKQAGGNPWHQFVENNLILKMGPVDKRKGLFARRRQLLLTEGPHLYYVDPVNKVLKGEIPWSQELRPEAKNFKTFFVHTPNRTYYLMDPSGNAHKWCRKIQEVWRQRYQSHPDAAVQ
Particulars: 10 µM compound; ATP 100. An outline of the steps: as §1

Another experiment concerns the target T12, BTK (Homo sapiens, UniProt Q06187).
T12 construct: purchased ThermoFisher (SelectScreen, Z'-LYTE)
The procedure, abridged: as §1

Another experiment has as its target T13, STK4 (MST1) (Homo sapiens, UniProt Q13043).
T13 construct: purchased ThermoFisher (SelectScreen, Z'-LYTE)
T13 sequence (Q13043 1-487): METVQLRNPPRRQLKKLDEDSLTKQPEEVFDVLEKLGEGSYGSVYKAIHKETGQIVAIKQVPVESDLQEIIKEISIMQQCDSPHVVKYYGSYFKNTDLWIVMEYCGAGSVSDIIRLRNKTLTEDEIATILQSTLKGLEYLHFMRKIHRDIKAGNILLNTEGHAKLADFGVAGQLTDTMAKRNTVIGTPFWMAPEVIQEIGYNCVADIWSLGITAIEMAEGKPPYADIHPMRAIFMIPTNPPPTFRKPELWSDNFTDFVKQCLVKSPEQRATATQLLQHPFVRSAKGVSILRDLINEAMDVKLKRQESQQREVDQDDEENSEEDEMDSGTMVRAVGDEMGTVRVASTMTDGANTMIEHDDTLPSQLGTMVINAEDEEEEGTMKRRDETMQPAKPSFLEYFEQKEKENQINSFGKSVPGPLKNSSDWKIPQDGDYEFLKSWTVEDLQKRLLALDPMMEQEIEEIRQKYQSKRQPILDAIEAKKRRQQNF
An outline of the steps:
as §1

The target of the next experiment is T14, EPHA2 (Homo sapiens, UniProt P29317).
T14 construct: purchased ThermoFisher (SelectScreen, Z'-LYTE)
The procedure, abridged: as §1

A further experiment has as its target T15, HIPK1 (Myak) (Homo sapiens, UniProt Q86Z02).
T15 construct: purchased ThermoFisher (SelectScreen, Z'-LYTE)
The procedure, abridged:
as §1

The target of the next experiment is T16, PKN1 (PRK1) (Homo sapiens, UniProt Q16512).
T16 construct: purchased ThermoFisher (SelectScreen, Z'-LYTE)
T16 sequence (Q16512 whole entry): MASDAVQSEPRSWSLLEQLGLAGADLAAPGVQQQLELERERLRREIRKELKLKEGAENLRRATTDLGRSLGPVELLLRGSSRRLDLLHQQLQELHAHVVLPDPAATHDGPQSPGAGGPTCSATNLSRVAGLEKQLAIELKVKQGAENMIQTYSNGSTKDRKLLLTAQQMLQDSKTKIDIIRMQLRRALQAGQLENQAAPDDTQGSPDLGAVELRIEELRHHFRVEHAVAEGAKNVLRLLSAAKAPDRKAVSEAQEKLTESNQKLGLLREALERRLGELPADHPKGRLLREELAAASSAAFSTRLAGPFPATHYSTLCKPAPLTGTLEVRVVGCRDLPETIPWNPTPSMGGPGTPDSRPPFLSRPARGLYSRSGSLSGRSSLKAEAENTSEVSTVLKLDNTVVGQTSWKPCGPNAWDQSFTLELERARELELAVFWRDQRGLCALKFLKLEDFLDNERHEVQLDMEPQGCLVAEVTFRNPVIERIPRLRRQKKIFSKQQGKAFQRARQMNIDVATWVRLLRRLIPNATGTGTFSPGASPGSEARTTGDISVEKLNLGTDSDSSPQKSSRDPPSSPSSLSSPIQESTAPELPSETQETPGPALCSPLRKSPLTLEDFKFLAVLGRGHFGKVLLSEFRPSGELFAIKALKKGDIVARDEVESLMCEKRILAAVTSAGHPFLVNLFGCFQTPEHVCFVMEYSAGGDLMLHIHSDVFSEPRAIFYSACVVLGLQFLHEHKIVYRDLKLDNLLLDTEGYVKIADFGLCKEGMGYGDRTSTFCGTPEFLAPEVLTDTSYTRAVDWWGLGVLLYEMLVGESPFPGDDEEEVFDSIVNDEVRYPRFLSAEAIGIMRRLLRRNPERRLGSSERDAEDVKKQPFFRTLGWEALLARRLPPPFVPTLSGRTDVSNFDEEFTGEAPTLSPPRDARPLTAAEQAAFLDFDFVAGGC
The procedure, abridged:
as §1

The target of the next experiment is T17, CDK5/p35 (Homo sapiens, UniProt Q00535).
T17 construct: purchased ThermoFisher (SelectScreen, Z'-LYTE)
An outline of the steps:
as §1

The target of a further experiment is T18, AMPK A1/B1/G1 (Homo sapiens, UniProt Q13131).
T18 construct: purchased ThermoFisher (SelectScreen, Z'-LYTE)
The procedure, abridged:
as §1

Another experiment deals with T19, RET (Homo sapiens, UniProt P07949).
T19 construct: purchased ThermoFisher (SelectScreen, Z'-LYTE)
T19 sequence (P07949 29-1114): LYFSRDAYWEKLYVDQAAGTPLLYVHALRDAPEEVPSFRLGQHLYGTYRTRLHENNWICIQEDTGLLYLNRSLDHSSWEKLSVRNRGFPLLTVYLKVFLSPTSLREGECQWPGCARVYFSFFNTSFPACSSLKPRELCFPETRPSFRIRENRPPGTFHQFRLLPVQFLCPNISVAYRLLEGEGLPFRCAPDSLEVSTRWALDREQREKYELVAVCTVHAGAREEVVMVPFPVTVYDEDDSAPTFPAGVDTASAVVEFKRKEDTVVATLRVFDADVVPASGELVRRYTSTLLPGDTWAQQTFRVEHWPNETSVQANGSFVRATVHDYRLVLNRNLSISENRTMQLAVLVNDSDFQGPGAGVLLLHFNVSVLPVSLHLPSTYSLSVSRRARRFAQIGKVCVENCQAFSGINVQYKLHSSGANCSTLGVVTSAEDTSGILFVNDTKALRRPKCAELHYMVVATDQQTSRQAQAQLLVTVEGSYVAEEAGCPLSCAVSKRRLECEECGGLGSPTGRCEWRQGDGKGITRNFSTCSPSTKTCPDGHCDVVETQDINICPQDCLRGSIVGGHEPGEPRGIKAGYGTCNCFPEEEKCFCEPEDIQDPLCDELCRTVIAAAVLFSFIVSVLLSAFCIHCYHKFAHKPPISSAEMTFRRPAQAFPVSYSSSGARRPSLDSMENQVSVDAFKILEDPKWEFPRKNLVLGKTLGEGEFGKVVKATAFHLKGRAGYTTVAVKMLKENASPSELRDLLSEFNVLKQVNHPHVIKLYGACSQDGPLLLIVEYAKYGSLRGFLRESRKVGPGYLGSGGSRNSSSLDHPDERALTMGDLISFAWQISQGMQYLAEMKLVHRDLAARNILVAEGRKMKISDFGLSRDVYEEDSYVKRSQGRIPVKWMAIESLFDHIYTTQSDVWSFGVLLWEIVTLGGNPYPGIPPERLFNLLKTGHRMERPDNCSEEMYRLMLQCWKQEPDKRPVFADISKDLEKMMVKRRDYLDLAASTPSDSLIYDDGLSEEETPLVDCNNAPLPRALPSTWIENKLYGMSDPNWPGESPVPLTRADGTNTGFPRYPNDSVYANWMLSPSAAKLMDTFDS
An outline of the steps:
as §1

T1 sequence (P42684 whole entry): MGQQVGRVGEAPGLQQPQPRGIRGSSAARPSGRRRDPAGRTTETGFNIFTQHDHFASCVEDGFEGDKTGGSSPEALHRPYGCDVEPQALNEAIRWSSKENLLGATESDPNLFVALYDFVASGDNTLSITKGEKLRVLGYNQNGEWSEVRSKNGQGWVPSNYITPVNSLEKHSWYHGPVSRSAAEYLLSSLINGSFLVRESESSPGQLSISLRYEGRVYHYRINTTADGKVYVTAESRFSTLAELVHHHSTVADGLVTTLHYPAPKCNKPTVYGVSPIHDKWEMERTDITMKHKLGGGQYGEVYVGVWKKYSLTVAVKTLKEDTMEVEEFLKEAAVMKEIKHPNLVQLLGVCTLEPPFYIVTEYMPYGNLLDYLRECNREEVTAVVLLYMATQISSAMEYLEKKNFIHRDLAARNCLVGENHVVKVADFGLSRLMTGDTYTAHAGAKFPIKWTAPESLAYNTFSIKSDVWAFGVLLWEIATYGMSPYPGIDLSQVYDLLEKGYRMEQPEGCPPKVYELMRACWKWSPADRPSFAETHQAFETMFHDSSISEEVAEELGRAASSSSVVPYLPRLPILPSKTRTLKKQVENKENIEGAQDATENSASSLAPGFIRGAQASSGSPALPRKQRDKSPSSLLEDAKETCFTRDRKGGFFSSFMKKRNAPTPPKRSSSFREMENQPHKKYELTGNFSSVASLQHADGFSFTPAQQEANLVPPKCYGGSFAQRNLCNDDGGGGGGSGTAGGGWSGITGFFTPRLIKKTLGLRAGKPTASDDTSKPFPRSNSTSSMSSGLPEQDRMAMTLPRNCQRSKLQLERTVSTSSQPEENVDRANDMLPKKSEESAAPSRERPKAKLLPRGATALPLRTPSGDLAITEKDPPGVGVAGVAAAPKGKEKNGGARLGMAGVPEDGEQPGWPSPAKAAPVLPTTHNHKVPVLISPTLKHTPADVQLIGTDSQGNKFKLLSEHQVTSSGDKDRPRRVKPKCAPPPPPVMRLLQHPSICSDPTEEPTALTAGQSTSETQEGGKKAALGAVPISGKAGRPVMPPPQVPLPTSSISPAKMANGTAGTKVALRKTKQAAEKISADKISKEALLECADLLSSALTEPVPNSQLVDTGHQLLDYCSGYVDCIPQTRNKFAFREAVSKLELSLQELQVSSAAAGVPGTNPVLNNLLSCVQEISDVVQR
T15 sequence (Q86Z02 whole entry): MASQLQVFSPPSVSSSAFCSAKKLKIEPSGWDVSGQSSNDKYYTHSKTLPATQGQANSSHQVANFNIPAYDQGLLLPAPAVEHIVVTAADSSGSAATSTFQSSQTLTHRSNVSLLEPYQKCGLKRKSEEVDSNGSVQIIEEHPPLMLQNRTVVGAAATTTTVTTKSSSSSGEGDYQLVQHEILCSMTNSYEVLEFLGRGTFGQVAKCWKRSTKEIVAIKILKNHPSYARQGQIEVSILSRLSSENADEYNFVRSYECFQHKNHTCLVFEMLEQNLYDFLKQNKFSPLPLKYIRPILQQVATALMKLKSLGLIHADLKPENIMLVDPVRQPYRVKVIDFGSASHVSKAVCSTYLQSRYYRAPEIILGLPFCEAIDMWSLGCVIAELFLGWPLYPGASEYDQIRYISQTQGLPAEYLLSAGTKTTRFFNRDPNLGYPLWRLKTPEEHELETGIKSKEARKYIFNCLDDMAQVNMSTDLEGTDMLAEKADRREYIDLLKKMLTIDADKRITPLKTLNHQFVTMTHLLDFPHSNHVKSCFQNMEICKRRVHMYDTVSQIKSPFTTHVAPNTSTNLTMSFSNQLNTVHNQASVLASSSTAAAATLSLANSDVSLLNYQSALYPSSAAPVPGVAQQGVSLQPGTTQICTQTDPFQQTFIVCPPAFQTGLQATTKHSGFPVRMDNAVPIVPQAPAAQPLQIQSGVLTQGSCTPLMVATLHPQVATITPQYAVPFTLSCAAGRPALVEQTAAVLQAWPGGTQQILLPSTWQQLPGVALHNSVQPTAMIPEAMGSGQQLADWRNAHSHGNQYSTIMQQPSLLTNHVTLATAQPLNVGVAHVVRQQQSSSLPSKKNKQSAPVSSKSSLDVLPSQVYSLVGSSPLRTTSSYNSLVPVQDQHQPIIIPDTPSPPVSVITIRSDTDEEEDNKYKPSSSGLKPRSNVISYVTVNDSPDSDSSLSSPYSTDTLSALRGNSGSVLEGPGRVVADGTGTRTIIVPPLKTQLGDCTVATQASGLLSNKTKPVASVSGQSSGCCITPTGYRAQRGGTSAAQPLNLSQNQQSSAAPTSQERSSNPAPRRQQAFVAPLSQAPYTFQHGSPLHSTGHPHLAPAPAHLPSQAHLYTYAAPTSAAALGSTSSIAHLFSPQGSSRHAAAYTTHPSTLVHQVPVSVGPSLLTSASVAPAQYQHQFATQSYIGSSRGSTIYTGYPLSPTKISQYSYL

By inhibition is commonly meant the change of the read-out against control, counted positive when it falls. As for `Cc1ncc(-c2nc(Nc3ccc(C(=O)NCCN4CCCCC4)cc3)ncc2F)n1C(C)C` [Compound 3], the inhibition at 10 µM against ABL2 (Arg) was 75%; in experiment [1], 9%; against MAP2K1 (MEK1), 97%; against MELK it was 100%; at NTRK3 (TRKC), 79%; against MAP3K9 (MLK1), 92%. For the same compound, the inhibition at 10 µM against GRK4 is 41%; on CSF1R (FMS), 94%; against CAMK2B (CaMKII beta), 70%; against MAPK12 (p38 gamma), 46%; on PDK1, 50%; against BTK, 59%. For the same compound, the inhibition at 10 µM on STK4 (MST1) stood at 82%; at EPHA2, 69%; against HIPK1 (Myak), 83%; against PKN1 (PRK1), 62%; at CDK5/p35, 106%; against AMPK A1/B1/G1, 95%. Also, the inhibition at 10 µM at RET came out at 95%.

As to `Cc1cc(Nc2nc(N)nn2C(=O)NC(C)C)ccc1Cl` [Compound 5], the inhibition at 10 µM came out at 52% against ABL2 (Arg); 9% in experiment [1]; 8.53% at MAP2K1 (MEK1); 4.73% on MELK; 52% at NTRK3 (TRKC); 69% on MAP3K9 (MLK1). For the same compound, the inhibition at 10 µM against GRK4 is 7%; against CSF1R (FMS), > 80%; against CAMK2B (CaMKII beta), -2.29%; at MAPK12 (p38 gamma) it was 1.08%; at PDK1, 8%; against BTK, 11%. Further, the inhibition at 10 µM against STK4 (MST1) was 65%; against EPHA2, -1.47%; against HIPK1 (Myak), -2.24%; on PKN1 (PRK1), -3.54%; on CDK5/p35, 71%; against AMPK A1/B1/G1, 23%. The inhibition at 10 µM at RET is 44%. Moreover, the “CSF1R (FMS) % Inhibition” value at CSF1R (FMS) (listed as SN1109056190, 10 µM) is 81%.

Take “XMD8-92 [Compound 2, reference compound]”: on ABL2 (Arg) (10 µM compound, ATP Km app), the “ABL2 (Arg) % Inhibition” value was 21%. For the same compound, in experiment [1] (10 µM compound, ATP Km app), the “MAPK14 (p38 alpha) Direct % Inhibition” value was 8%. The “MAP2K1 (MEK1) % Inhibition” value on MAP2K1 (MEK1) is 17%. The “MELK % Inhibition” value at MELK (10 µM compound, ATP Km app) is on record as 80%. For the same compound, the “NTRK3 (TRKC) % Inhibition” value at NTRK3 (TRKC) (10 µM compound, ATP Km app) is 64%. At MAP3K9 (MLK1) (10 µM compound, ATP Km app), the “MAP3K9 (MLK1) % Inhibition” value is listed as 8.53%. Moreover, the “GRK4 % Inhibition” value on GRK4 (10 µM compound, ATP Km app) came to 93%. Further, the “CSF1R (FMS) % Inhibition” value at CSF1R (FMS) is given as 29%. In addition, the “CAMK2B (CaMKII beta) % Inhibition” value on CAMK2B (CaMKII beta) (10 µM compound, ATP Km app) was found to be 70%. The “MAPK12 (p38 gamma) % Inhibition” value at MAPK12 (p38 gamma) (10 µM compound, ATP Km app) is 3.54%. Besides, at PDK1, the “PDK1 % Inhibition” value amounted to 21%. Besides, the “BTK % Inhibition” value at BTK (10 µM compound, ATP Km app) was found to be 35%. The “STK4 (MST1) % Inhibition” value on STK4 (MST1) (10 µM compound, ATP Km app) worked out at 6%. Moreover, the “EPHA2 % Inhibition” value at EPHA2 (10 µM compound, ATP Km app) was -9.52%. Also, the “HIPK1 (Myak) % Inhibition” value at HIPK1 (Myak) (10 µM compound, ATP Km app) turned out to be 6%. Further, the “PKN1 (PRK1) % Inhibition” value at PKN1 (PRK1) (10 µM compound, ATP Km app) amounted to 1.26%. In addition, on CDK5/p35 (10 µM compound, ATP Km app), the “CDK5/p35 % Inhibition” value was determined as 77%. Further, the “AMPK A1/B1/G1 % Inhibition” value at AMPK A1/B1/G1 (10 µM compound, ATP Km app) came to 55%. For the same compound, the “RET % Inhibition” value on RET (10 µM compound, ATP Km app) is on record as 40%.
